{
  "source": "patent US20240335464A1",
  "about": "“ADMINISTRATION OF STING AGONIST, CHECKPOINT INHIBITORS, AND RADIATION” (Takeda Pharmaceutical Company Limited, priority 2020, published 2024)",
  "system": "CT26 murine colorectal carcinoma tumor",
  "assay": "Study 4: CT26 subcutaneous tumor model, anti-tumor efficacy",
  "assay_type": "in vivo, female Balb/c mice",
  "conditions": "for GRI (%) Day 11: vs vehicle",
  "method": "Study 4: CT26 is a murine colorectal carcinoma cell line. Eight-week-old female Balb/c mice (Jackson Labs, Maine) were inoculated subcutaneously with 0.2×10^6 CT26 tumor cells and monitored for tumor growth. Once the tumors reached an average of 100-125 mm^3, animals were irradiated with either mock irradiation or 8 Gy of focal beam irradiation (Study Day 0). Animals were then dosed intravenously with either vehicle (PBS) or 0.25 mg/kg of Compound No. 14 on a QW×3 schedule beginning on Study Day 1. Anti-mPD-1 antibody (clone RMP1-14, BioXCell) treatment was administered intraperitoneally twice weekly starting on Study Day 1 with a concentration of 10 mg/kg for 3 weeks. Animals were monitored for tumor volumes and body weight changes twice weekly throughout the study once they reached their humane endpoint. GRI was calculated on the last day with animals remaining in the vehicle group (Study Day 11).\nStudy 4: A 5 mg/mL stock solution of Compound No. 14 was formulated in PBS at the final concentration of 0.0667 mg/mL and administered intravenously (IV). Final doses received were 0.25 mg/kg. […] Compound No. 14 was administered on a QW schedule for 3 doses in single agent treatment group and in combination treatment groups beginning on Day 1. Dose formulation of Compound No. 14 was prepared once and utilized for dosing on each treatment day.\nAnti-mPD-1 or isotype control was administered concurrent with Compound No. 14 or vehicle control on a BIW schedule for 3 doses in single agent treatment groups and in combination treatment groups.\nStudies 4 and 5: Radiation treatment for Studies 4 and 5 were performed using focal beam radiation with volumentric image guidance from computer tomography scans on the SmART (Small animal image-guided radiotherapy) platform (Precision XRay Inc., North Branford, CT). Animals received 4.52 Gy/min of radiation and approximately 1.8 min was needed to reach 8 Gy dose delivery (Study 4) or […] was needed to reach 16 Gy dose delivery (Study 5). Animals were anesthetized during imaging and radiation treatment using 1-2% isoflurane.\nGrowth Rate Inhibition: The differences in the tumor growth trends over time between pairs of treatment groups were assessed by fitting each animal's data to a simple exponential growth model and comparing the mean growth rates of the two groups, as described in more detail below. The difference in the growth rates was summarized by the GRI, which is the reduction in growth rate experienced by the treatment group relative to that of the reference group, expressed as a fraction of the vehicle growth rate.\nμT and μC are the mean tumor growth rates for the treatment and reference groups, respectively. μV is the mean tumor growth rate for the vehicle group, which in most cases is the same as the reference group.\nA GRI greater than 100% is interpreted as tumor regression when the vehicle group is the same as the reference group. A negative value of the GRI means that the tumors in the treatment group grew faster than the tumors in the reference group. Statistical significance was determined using an unpaired t-test.\nTumor Growth Rate Computation: Low tumor volumes can cause problems with the data analysis, so all measurements below 25 cubic mm (including 0 values) were excluded from the analysis. After this exclusion step, the tumor volume was assumed to follow an exponential growth model. More specifically, for a given animal and treatment group,\nwhere Vi is the tumor volume at the i^th time point. Here, a is the initial log volume, b is the tumor growth rate, and t1 is the measurement time in days. εi is the residual error term, which was assumed to be uncorrelated and drawn from a normal distribution.\nThis model was fit separately for each animal within each treatment group. If an animal was sacrificed or died early, but at least two unique time points were measured (including baseline), then the data up to that point was used to estimate the growth rate. […]",
  "key": {"[1]": {"conditions": "TG02 Compound No. 14 0.25 mg/kg QWx3 IV, single agent"}, "[2]": {"conditions": "TG05 Compound No.14 0.25 mg/kg QWx3 IV + Radiation 8 Gy, through Day 11"}},
  "data": [
    {"molecule": "Nc1ncnc2c1ncn2[C@@H]1O[C@@H]2COP(=O)(S)O[C@@H]3[C@H](O)[C@@H](COP(=O)(S)O[C@H]2[C@H]1F)O[C@H]3n1cc(F)c2c(=O)[nH]cnc21", "note": "(stereo partly drawn) [Compound No. 14]", "values": [
      {"measurement": "Number of Animals Removed", "setting": "[1]", "value": 0},
      {"measurement": "GRI (%) Day 11", "setting": "[1]", "value": 13, "unit": "%"},
      {"measurement": "Number of Animals Removed", "setting": "TG05 Compound No. 14 0.25 mg/kg QWx3 IV + Radiation 8 Gy", "value": 0},
      {"measurement": "GRI (%) Day 11", "setting": "TG05 Compound No. 14 0.25 mg/kg QWx3 IV + Radiation 8 Gy (Day 0)", "value": 88, "unit": "%"},
      {"measurement": "Combination Assessment", "setting": "[2]", "value": "Additive"},
      {"measurement": "Synergy Score %", "setting": "[2]", "value": "−12", "unit": "%"}
    ]}
  ]
}
